Assay [1] deals with Serine/threonine-protein kinase B-raf (Homo sapiens, UniProt P15056).
For assay [2], the target named is Mitogen-activated protein kinase kinase kinase kinase 1 (Homo sapiens, UniProt Q92918).
Another assay deals with Activated CDC42 kinase 1 (Homo sapiens, UniProt Q07912).
Assay [3] deals with T1, Mitogen-activated protein kinase kinase kinase 2 (Homo sapiens, UniProt Q9Y2U5).
T1 sequence (Q9Y2U5 whole entry): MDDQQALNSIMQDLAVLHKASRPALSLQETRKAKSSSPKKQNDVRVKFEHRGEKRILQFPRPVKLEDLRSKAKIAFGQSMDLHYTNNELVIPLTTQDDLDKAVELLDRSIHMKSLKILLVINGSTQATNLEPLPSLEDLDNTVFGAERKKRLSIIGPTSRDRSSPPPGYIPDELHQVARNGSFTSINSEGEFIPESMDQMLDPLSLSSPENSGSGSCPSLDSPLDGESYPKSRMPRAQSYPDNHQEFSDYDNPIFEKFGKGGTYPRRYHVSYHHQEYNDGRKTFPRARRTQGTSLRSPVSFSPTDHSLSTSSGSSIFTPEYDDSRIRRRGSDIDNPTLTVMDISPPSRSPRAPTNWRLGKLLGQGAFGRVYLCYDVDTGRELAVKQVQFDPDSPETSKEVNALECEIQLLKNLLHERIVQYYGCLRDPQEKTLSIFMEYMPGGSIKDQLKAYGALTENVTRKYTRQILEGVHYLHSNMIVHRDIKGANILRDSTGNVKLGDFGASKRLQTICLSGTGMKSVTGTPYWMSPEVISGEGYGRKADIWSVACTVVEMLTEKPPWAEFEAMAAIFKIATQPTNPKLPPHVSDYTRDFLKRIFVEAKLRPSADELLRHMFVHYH

In assay [4] the target is Mitogen-activated protein kinase kinase kinase 1 (Homo sapiens, UniProt Q13233).
Assay [5] has as its target T2, Dual specificity mitogen-activated protein kinase kinase 3 (Homo sapiens, UniProt P46734).
T2 sequence (P46734 whole entry): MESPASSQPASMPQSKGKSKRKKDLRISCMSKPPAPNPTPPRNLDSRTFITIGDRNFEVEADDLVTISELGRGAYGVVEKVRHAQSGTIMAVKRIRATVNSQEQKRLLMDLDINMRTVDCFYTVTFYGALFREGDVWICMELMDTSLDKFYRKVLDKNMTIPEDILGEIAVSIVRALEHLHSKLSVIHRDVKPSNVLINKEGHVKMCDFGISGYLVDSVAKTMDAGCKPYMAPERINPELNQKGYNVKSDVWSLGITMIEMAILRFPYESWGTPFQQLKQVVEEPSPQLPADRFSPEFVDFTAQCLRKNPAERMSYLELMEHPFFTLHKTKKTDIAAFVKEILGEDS

Assay [6] has as its target T3, Serine/threonine-protein kinase TAO1 (Homo sapiens, UniProt Q7L7X3).
T3 sequence (Q7L7X3 whole entry): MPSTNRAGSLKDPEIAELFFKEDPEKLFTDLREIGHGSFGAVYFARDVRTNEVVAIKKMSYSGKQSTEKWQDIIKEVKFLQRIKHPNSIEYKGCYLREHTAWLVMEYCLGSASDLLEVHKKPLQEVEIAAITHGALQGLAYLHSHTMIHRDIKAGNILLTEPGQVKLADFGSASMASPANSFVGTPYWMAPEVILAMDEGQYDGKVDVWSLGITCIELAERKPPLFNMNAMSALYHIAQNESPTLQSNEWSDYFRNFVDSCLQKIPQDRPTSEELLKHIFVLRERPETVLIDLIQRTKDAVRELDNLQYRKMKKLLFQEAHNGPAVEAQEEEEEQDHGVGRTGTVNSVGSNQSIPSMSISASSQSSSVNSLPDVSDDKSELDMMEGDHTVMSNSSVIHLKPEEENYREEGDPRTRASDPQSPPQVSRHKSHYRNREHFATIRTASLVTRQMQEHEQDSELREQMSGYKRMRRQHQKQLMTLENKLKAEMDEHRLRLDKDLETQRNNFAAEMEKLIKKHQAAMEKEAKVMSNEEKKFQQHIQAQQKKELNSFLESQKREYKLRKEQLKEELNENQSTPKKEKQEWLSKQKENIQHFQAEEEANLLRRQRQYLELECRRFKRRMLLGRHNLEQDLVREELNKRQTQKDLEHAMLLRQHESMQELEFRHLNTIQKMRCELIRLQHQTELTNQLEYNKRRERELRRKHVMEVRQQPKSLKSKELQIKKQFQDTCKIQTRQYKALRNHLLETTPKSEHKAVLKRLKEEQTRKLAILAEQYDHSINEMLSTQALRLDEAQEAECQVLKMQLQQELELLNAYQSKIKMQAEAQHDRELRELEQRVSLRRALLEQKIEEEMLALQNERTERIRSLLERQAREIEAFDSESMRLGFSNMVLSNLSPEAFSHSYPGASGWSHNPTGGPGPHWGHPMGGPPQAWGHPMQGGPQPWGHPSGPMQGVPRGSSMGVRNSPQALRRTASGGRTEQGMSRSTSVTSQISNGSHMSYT

The source made the active and inactive calls. Cut-off read from the data, not from the text of the source, for most assays here: actives have a measured Kd and inactives only a lower limit. Where only a bound is given, the exact number is not on record here.
Note: in the data inactive means no Kd found up to 30 µM.

Sequence of Activated CDC42 kinase 1 (Q07912 whole entry): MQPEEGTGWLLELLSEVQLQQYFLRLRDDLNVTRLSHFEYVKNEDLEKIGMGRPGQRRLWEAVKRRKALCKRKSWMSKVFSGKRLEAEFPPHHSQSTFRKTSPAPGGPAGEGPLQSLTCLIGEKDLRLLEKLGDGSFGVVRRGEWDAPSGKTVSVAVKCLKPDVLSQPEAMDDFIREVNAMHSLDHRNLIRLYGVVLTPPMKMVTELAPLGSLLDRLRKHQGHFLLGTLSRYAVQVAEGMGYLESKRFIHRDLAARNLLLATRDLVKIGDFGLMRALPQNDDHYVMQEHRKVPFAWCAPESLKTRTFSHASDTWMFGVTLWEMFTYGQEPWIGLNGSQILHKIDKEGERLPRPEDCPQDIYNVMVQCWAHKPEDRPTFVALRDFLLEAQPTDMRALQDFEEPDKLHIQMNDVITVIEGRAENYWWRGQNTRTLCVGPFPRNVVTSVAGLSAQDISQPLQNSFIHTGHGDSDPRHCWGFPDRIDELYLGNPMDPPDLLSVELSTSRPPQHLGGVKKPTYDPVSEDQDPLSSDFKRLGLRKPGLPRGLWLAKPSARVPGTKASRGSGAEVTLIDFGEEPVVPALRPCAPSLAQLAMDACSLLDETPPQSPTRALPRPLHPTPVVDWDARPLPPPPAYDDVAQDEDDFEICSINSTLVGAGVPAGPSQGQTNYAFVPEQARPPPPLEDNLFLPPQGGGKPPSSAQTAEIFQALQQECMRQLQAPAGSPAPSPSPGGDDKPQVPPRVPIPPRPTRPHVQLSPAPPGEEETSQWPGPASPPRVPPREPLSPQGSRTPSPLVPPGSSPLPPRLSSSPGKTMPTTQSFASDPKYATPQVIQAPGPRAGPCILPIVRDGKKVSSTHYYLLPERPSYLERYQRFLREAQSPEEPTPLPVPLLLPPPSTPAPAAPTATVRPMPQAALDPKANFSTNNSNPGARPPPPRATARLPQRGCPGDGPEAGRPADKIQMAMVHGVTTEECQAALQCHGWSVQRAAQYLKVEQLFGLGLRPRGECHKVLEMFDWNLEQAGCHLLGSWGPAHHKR
Sequence of Mitogen-activated protein kinase kinase kinase 1 (Q13233 whole entry): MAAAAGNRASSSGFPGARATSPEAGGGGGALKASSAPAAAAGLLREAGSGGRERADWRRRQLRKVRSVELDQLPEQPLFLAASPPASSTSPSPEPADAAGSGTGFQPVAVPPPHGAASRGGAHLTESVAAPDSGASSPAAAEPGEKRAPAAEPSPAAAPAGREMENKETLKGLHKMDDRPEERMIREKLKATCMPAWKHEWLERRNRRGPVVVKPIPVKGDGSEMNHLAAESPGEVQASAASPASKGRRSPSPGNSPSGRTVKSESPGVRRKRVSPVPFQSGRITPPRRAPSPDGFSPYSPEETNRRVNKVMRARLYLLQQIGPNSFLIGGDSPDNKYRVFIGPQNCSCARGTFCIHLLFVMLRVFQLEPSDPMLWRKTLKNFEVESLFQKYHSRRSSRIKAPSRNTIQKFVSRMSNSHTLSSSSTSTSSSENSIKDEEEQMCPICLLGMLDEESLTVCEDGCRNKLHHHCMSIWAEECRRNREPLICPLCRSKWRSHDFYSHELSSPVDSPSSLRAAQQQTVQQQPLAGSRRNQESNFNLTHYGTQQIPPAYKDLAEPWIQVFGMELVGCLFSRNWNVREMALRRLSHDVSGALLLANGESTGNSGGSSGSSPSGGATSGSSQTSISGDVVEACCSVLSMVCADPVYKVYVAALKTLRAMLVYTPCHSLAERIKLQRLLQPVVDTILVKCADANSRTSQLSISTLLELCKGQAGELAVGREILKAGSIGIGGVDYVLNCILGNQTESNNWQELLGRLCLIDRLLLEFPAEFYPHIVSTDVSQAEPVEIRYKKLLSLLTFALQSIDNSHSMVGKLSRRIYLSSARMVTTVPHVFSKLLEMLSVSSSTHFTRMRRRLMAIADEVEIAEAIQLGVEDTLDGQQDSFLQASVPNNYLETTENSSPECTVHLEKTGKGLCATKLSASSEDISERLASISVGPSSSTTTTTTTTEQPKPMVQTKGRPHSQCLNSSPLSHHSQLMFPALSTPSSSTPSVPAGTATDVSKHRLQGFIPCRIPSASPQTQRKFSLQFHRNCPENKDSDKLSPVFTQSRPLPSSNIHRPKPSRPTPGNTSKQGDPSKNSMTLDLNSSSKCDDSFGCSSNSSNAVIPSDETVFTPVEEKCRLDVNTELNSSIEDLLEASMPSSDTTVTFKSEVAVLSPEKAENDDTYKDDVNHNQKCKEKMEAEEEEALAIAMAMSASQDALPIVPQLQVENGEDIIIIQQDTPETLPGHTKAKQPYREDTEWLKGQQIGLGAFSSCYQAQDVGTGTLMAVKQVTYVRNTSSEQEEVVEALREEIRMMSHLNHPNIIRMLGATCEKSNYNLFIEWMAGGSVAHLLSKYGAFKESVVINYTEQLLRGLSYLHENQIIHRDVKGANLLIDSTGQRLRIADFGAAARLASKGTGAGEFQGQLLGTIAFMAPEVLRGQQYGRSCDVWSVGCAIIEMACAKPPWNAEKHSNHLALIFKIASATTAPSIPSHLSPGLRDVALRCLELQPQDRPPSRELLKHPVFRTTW
Sequence of Mitogen-activated protein kinase kinase kinase kinase 1 (Q92918 whole entry): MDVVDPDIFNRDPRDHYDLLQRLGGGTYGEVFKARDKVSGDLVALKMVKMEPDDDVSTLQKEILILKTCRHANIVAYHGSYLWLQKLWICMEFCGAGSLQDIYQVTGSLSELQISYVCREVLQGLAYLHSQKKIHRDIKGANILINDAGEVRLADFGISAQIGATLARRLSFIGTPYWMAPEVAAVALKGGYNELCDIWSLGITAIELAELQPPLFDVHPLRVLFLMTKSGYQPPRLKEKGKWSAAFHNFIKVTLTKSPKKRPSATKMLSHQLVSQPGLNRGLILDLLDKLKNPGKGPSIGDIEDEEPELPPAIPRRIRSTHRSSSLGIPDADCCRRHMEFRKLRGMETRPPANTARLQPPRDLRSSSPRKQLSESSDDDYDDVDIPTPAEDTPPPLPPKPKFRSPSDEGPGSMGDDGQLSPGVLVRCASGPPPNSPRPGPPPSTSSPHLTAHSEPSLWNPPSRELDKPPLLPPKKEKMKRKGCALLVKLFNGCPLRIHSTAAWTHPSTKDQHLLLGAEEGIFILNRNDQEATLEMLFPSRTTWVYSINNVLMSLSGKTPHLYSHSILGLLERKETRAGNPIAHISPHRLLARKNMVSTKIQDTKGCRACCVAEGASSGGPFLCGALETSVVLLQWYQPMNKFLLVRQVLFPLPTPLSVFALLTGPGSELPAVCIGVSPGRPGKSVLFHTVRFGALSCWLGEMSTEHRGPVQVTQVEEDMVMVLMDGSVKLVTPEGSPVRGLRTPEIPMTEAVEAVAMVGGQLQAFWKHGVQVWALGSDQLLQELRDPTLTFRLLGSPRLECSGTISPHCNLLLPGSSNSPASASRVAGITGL
Sequence of Serine/threonine-protein kinase B-raf (P15056 whole entry): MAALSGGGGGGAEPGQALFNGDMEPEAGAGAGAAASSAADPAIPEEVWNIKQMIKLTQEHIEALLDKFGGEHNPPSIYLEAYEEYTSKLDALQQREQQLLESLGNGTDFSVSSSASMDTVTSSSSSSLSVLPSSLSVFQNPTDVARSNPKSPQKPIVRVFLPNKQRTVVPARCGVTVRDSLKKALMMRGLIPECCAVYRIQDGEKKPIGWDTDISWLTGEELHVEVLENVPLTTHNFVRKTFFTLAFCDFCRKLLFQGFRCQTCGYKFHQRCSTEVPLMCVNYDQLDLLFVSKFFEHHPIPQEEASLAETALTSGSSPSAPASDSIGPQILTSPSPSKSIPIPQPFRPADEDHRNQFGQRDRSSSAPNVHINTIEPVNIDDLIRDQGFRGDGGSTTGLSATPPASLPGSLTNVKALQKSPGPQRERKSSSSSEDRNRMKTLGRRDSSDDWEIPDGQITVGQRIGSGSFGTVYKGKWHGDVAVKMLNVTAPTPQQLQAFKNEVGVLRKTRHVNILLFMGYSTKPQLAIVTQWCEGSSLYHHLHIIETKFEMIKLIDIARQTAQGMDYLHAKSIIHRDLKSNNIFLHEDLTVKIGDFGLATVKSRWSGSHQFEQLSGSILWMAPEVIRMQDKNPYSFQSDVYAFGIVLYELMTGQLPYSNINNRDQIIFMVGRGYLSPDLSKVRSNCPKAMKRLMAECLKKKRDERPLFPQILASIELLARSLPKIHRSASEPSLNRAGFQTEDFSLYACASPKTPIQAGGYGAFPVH

For `CC(=O)Nc1cccc(-n2c(=O)n(C3CC3)c(=O)c3c(Nc4ccc(I)cc4F)n(C)c(=O)c(C)c32)c1` [TRAMETINIB], the Kd (in assay [1]; in assay [2]; at Activated CDC42 kinase 1; in assay [3]; in assay [4]; in assay [5]) was > 30 µM (inactive) in each case. Also, the Kd in assay [6] was > 30 µM (inactive).
Turning to `Cn1ncc(Cl)c1-c1cc(C(=O)N[C@H](CN)Cc2cccc(F)c2)sc1Cl` [AFURESERTIB], the Kd (in assay [1]; in assay [2]; on Activated CDC42 kinase 1; in assay [3]; in assay [4]; in assay [5]) was > 30 µM (inactive) in each case. Moreover, the Kd in assay [6] is > 30 µM (inactive).
For `COCCNCc1ccc(-c2cc3nccc(Oc4ccc(NC(=S)NC(=O)Cc5ccc(F)cc5)cc4F)c3s2)nc1` [GLESATINIB], the Kd (in assay [1]; in assay [2]; at Activated CDC42 kinase 1; in assay [3]; in assay [4]; in assay [5]) was > 30 µM (inactive) throughout. Further, the Kd in assay [6] was > 30 µM (inactive).
For the molecule `Cn1cc(-c2ccc3nnc(C(F)(F)c4ccc5ncccc5c4)n3n2)cn1` [JNJ-38877605], the Kd (in assay [1]; in assay [2]; on Activated CDC42 kinase 1; in assay [3]; in assay [4]; in assay [5]) was > 30 µM (inactive) in each case. For the same molecule, in assay [6], the Kd is > 30 µM (inactive).
As to `Cc1cc([C@@H](C)Nc2ccccc2C(=O)O)c2nc(N3CCOCC3)cc(=O)n2c1` [AZD-6482], the Kd (in assay [1]; in assay [2]; on Activated CDC42 kinase 1; in assay [3]; in assay [4]; in assay [5]) was > 30 µM (inactive) throughout. Also, in assay [6], the Kd is > 30 µM (inactive).
As for `COc1cc(CCc2cc(NC(=O)c3ccc(N4C[C@@H](C)N[C@@H](C)C4)cc3)n[nH]2)cc(OC)c1` [AZD-4547], the Kd in assay [1] was > 30 µM (inactive); in assay [2], 0.354 µM (active); at Activated CDC42 kinase 1, 0.148 µM; in assay [3], > 30 µM (inactive); in assay [4], > 30 µM (inactive); in assay [5] it was > 30 µM (inactive). For the same molecule, the Kd in assay [6] is > 30 µM (inactive).
For the molecule `CNC(=O)c1ccc(-c2cnc3ncc(Cc4ccc5ncccc5c4)n3n2)cc1F` [CAPMATINIB], the Kd (in assay [1]; in assay [2]; on Activated CDC42 kinase 1; in assay [3]; in assay [4]; in assay [5]) was > 30 µM (inactive) throughout. Moreover, the Kd in assay [6] is > 30 µM (inactive).
As to `CN1CC[C@@H](c2c(O)cc(O)c3c(=O)cc(-c4ccccc4Cl)oc23)[C@@H]1CO`, the Kd (in assay [1]; in assay [2]; at Activated CDC42 kinase 1; in assay [3]; in assay [4]; in assay [5]) was > 30 µM (inactive) in each case. The Kd in assay [6] is > 30 µM (inactive).
`N[C@@H]1CCCN(c2c(/C=C3\SC(=O)NC3=O)cccc2-c2ccccc2)C1`: the Kd (in assay [1]; in assay [2]; on Activated CDC42 kinase 1; in assay [3]; in assay [4]; in assay [5]) was > 30 µM (inactive) in each case. The Kd in assay [6] was > 30 µM (inactive).
For `CCN1CCN(Cc2ccc(-c3cc4c(N[C@H](C)c5ccccc5)ncnc4[nH]3)cc2)CC1` [AEE-788], the Kd in assay [1] is > 30 µM (inactive); in assay [2], > 30 µM (inactive); at Activated CDC42 kinase 1 it was 1.01 µM (active); in assay [3], > 30 µM (inactive); in assay [4], > 30 µM (inactive); in assay [5] it was > 30 µM (inactive). Moreover, the Kd in assay [6] is > 30 µM (inactive).
For `C[C@@H]1CN(Cc2ccc(F)cc2)[C@@H](C)CN1C(=O)c1cc2c(C(=O)C(=O)N(C)C)cn(C)c2cc1Cl` [TALMAPIMOD], the Kd (in assay [1]; in assay [2]; on Activated CDC42 kinase 1; in assay [3]; in assay [4]; in assay [5]) was > 30 µM (inactive) each time. Also, the Kd in assay [6] was > 30 µM (inactive).
In the case of `O=C(Nc1ccc(-c2ccnc(Nc3ccc(N4CCOCC4)cc3)n2)cc1)C1CCCN1` (configuration not stated) [XL-019], the Kd (in assay [1]; in assay [2]; at Activated CDC42 kinase 1; in assay [3]; in assay [4]; in assay [5]) was > 30 µM (inactive) each time. In addition, the Kd in assay [6] is > 30 µM (inactive).
In the case of `CN1CCC(COc2cnc(-c3cccc(Cn4nc(-c5cccc(C#N)c5)ccc4=O)c3)nc2)CC1` [TEPOTINIB], the Kd (in assay [1]; in assay [2]; at Activated CDC42 kinase 1; in assay [3]; in assay [4]; in assay [5]) was > 30 µM (inactive) throughout. Besides, the Kd in assay [6] was > 30 µM (inactive).
Take `Cn1cc(-c2ccc(F)c(C(F)(F)F)c2)nc1C1CCN(c2ncnc3[nH]ncc23)CC1` [LY-2584702]: the Kd (in assay [1]; in assay [2]; on Activated CDC42 kinase 1; in assay [3]; in assay [4]; in assay [5]) was > 30 µM (inactive) in each case. Moreover, the Kd in assay [6] was > 30 µM (inactive).
With `Cc1cc2c(F)c(Oc3ncnn4cc(OC[C@@H](C)OC(=O)[C@H](C)N)c(C)c34)ccc2[nH]1` [BRIVANIB ALANINATE], the Kd (in assay [1]; in assay [2]; on Activated CDC42 kinase 1; in assay [3]; in assay [4]; in assay [5]) was > 30 µM (inactive) throughout. In assay [6], the Kd is > 30 µM (inactive).
For the molecule `CNC(=O)c1ccc(C)c(-n2c(C)cc(OCc3ccc(F)cc3F)c(Br)c2=O)c1` [PH-797804], the Kd (in assay [1]; in assay [2]; on Activated CDC42 kinase 1; in assay [3]; in assay [4]; in assay [5]) was > 30 µM (inactive) in each case. The Kd in assay [6] is > 30 µM (inactive).

The Kd is the constant that tells how readily two partners part at equilibrium.
